Measurements as given in ChEMBL document CHEMBL1201862, “PubChem BioAssay data set” (2004).
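Growth conditions: 96-well plates. Treatment: test compound, 48 hours, 5 concentrations. Analysis: linear interpolation between bracketing concentrations; unreached endpoints set to highest concentration. At the GI50, growth is halved.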 Activity calls are given as the source filed them. Cut-off read from the data, not from the text of the source: active = GI50 up to about 1.1 µM and inactive = higher.

Experiments:
Assay in all cases: NCI-60 cell line screen, 48 h
IGROV-1 = tested on: IGROV-1
M14 = tested on: M14
NCI-H522 = tested on: NCI-H522
UACC-257 = tested on: UACC-257
CCRF-CEM = tested on: CCRF-CEM
DMS-273 = tested on: DMS-273
A498 = tested on: A498
COLO 205 = tested on: COLO 205
HCT-15 = tested on: HCT-15
HCT-116 = tested on: HCT-116
ACHN = tested on: ACHN
HT-29 = tested on: HT-29
HCC 2998 = tested on: HCC 2998
UACC-62 = tested on: UACC-62
OVCAR-8 = tested on: OVCAR-8
Malme-3M = tested on: Malme-3M
DMS-114 = tested on: DMS-114
SW-620 = tested on: SW-620
SNB-78 = tested on: SNB-78
HL-60 = tested on: HL-60
EKVX = tested on: EKVX
SF-539 = tested on: SF-539
RPMI-8226 = tested on: RPMI-8226
SNB-75 = tested on: SNB-75
SF-295 = tested on: SF-295
SK-MEL-5 = tested on: SK-MEL-5
SNB-19 = tested on: SNB-19
U-251 = tested on: U-251
NCI-H23 = tested on: NCI-H23
SK-MEL-28 = tested on: SK-MEL-28
HOP-92 = tested on: HOP-92
HOP-62 = tested on: HOP-62
KM-20L2 = tested on: KM-20L2
DLD-1 = tested on: DLD-1
MOLT-4 = tested on: MOLT-4
RXF 393 = tested on: RXF 393
LXFL 529 = tested on: LXFL 529
SF-268 = tested on: SF-268
NCI-H226 = tested on: NCI-H226
SR = tested on: SR
786-0 = tested on: 786-0
HOP-18 = tested on: HOP-18
OVCAR-4 = tested on: OVCAR-4
SN12C = tested on: SN12C
K562 = tested on: K562
A549 = tested on: A549
M19-MEL = tested on: M19-MEL
SK-OV-3 = tested on: SK-OV-3
UO-31 = tested on: UO-31
LOX IMVI = tested on: LOX IMVI
KM12 = tested on: KM12
OVCAR-5 = tested on: OVCAR-5
SK-MEL-2 = tested on: SK-MEL-2
OVCAR-3 = tested on: OVCAR-3
TK-10 = tested on: TK-10
NCI-H460 = tested on: NCI-H460
CAKI-1 = tested on: CAKI-1

With `O=C1c2ccccc2N2Oc3ccccc3C12c1ccccc1` (centres undefined) the GI50 (IGROV-1) was > 100 µM (inactive), the GI50 (M14) was > 100 µM (inactive) and the GI50 (NCI-H522) was > 100 µM (inactive). The GI50 (UACC-257) was > 100 µM (inactive), the GI50 (CCRF-CEM) was > 100 µM (inactive) and the GI50 (DMS-273) was > 100 µM (inactive). The GI50 (A498) was > 100 µM (inactive), the GI50 (COLO 205) was > 100 µM (inactive) and the GI50 (HCT-15) was over 100 µM. The GI50 (HCT-116) was > 100 µM (inactive), the GI50 (ACHN) was > 100 µM (inactive) and the GI50 (HT-29) was > 100 µM (inactive). The GI50 (HCC 2998) was > 100 µM (inactive), the GI50 (UACC-62) was > 100 µM (inactive) and the GI50 (OVCAR-8) was > 100 µM (inactive). The GI50 (Malme-3M) was > 100 µM (inactive), the GI50 (DMS-114) was > 100 µM (inactive) and the GI50 (SW-620) was > 100 µM (inactive). The GI50 (SNB-78) was > 100 µM (inactive), the GI50 (HL-60) was > 100 µM (inactive) and the GI50 (EKVX) was > 100 µM (inactive). The GI50 (SF-539) was > 100 µM (inactive), the GI50 (RPMI-8226) was > 100 µM (inactive) and the GI50 (SNB-75) was > 100 µM (inactive). For the same compound, the GI50 (SF-295) was > 100 µM (inactive), the GI50 (SK-MEL-5) was > 100 µM (inactive) and the GI50 (SNB-19) was > 100 µM (inactive). For the same compound, the GI50 (U-251) was > 100 µM (inactive), the GI50 (NCI-H23) was > 100 µM (inactive) and the GI50 (SK-MEL-28) was > 100 µM (inactive). For the same compound, the GI50 (HOP-92) was 92.7 µM (inactive), the GI50 (HOP-62) was > 100 µM (inactive) and the GI50 (KM-20L2) was > 100 µM (inactive). For the same compound, the GI50 (DLD-1) was > 10 µM (inactive), the GI50 (MOLT-4) was > 100 µM (inactive) and the GI50 (RXF 393) was > 100 µM (inactive). The GI50 (LXFL 529) was > 100 µM (inactive), the GI50 (SF-268) was > 100 µM (inactive) and the GI50 (NCI-H226) was 59.4 µM (inactive). The GI50 (SR) was > 100 µM (inactive), the GI50 (786-0) was > 100 µM (inactive) and the GI50 (HOP-18) was > 100 µM (inactive). The GI50 (OVCAR-4) was > 100 µM (inactive), the GI50 (SN12C) was > 100 µM (inactive) and the GI50 (K562) was > 100 µM (inactive). For the same compound, the GI50 (A549) was > 100 µM (inactive), the GI50 (M19-MEL) was > 100 µM (inactive) and the GI50 (SK-OV-3) was > 100 µM (inactive). The GI50 (UO-31) was > 100 µM (inactive).

For `O=C(CC(=O)C(F)(F)F)c1csc2ccccc12`, the GI50 (LOX IMVI) was 25 µM (inactive), the GI50 (KM12) was 38.9 µM (inactive) and the GI50 (IGROV-1) was 23.7 µM (inactive). For the same compound, the GI50 (M14) was 23.6 µM (inactive), the GI50 (NCI-H522) was 23.9 µM (inactive) and the GI50 (UACC-257) was 32.9 µM (inactive). The GI50 (CCRF-CEM) was 20.4 µM (inactive), the GI50 (DMS-273) was 25 µM (inactive) and the GI50 (COLO 205) was 38.5 µM (inactive). The GI50 (HCT-15) was 29.2 µM, the GI50 (HCT-116) was 34 µM (inactive) and the GI50 (OVCAR-5) was 53 µM (inactive). For the same compound, the GI50 (ACHN) was 34.5 µM (inactive), the GI50 (HCC 2998) was 48.9 µM (inactive) and the GI50 (UACC-62) was 32.2 µM (inactive). For the same compound, the GI50 (OVCAR-8) was 18.5 µM (inactive), the GI50 (SK-MEL-2) was 22 µM (inactive) and the GI50 (Malme-3M) was 26.4 µM (inactive). The GI50 (DMS-114) was 31 µM (inactive), the GI50 (SW-620) was 38.5 µM (inactive) and the GI50 (SNB-78) was 37.4 µM (inactive). The GI50 (HL-60) was > 10 µM (inactive), the GI50 (EKVX) was 33.4 µM (inactive) and the GI50 (SF-539) was 31.6 µM (inactive). For the same compound, the GI50 (OVCAR-3) was 40.9 µM (inactive), the GI50 (RPMI-8226) was 24.8 µM (inactive) and the GI50 (TK-10) was 4.28 µM (inactive). The GI50 (SF-295) was 10.4 µM (inactive), the GI50 (NCI-H460) was 19.1 µM (inactive) and the GI50 (SK-MEL-5) was 26.9 µM (inactive). For the same compound, the GI50 (SNB-19) was 37.2 µM (inactive), the GI50 (U-251) was 34.7 µM (inactive) and the GI50 (NCI-H23) was 29.4 µM (inactive). For the same compound, the GI50 (SK-MEL-28) was 14.1 µM (inactive), the GI50 (HOP-62) was 22.5 µM (inactive) and the GI50 (KM-20L2) was 39.3 µM (inactive). The GI50 (MOLT-4) was 17.8 µM (inactive), the GI50 (RXF 393) was 3.13 µM (inactive) and the GI50 (LXFL 529) was 21.7 µM (inactive). For the same compound, the GI50 (SF-268) was 30.8 µM (inactive), the GI50 (SR) was 17.5 µM (inactive) and the GI50 (786-0) was 36.7 µM (inactive). The GI50 (SN12C) was 25 µM (inactive), the GI50 (K562) was 24.8 µM (inactive) and the GI50 (A549) was 62.2 µM (inactive). For the same compound, the GI50 (M19-MEL) was 32.8 µM (inactive), the GI50 (SK-OV-3) was 18 µM (inactive) and the GI50 (UO-31) was 27.9 µM (inactive).

`CCOC(=O)CC[C@@H](NC(=O)c1ccc(N[C@@H]2c3cc4c(cc3C(c3cc(OC)c(O)c(OC)c3)C3C(=O)OC[C@@H]32)OCO4)cc1)C(=O)OCC` (some centres undefined) was tested, and the GI50 (LOX IMVI) was 0.0205 µM (active), the GI50 (KM12) was 0.0322 µM (active) and the GI50 (IGROV-1) was 0.0706 µM (active). For the same compound, the GI50 (M14) was 5.24 µM (inactive), the GI50 (NCI-H522) was 0.0975 µM (active) and the GI50 (UACC-257) was 0.13 µM (active). The GI50 (CCRF-CEM) was 0.00525 µM (active), the GI50 (DMS-273) was 0.00566 µM (active) and the GI50 (A498) was 0.0129 µM (active). The GI50 (COLO 205) was 0.119 µM (active), the GI50 (HCT-15) was 0.0637 µM and the GI50 (OVCAR-5) was 0.0652 µM (active). For the same compound, the GI50 (ACHN) was 0.0115 µM (active), the GI50 (HT-29) was 0.0427 µM (active) and the GI50 (HCC 2998) was 0.136 µM (active). The GI50 (UACC-62) was 0.0167 µM (active), the GI50 (OVCAR-8) was 0.0251 µM (active) and the GI50 (SK-MEL-2) was 0.0863 µM (active). The GI50 (Malme-3M) was 0.0995 µM (active), the GI50 (SW-620) was 0.0396 µM (active) and the GI50 (SNB-78) was 0.859 µM (active). For the same compound, the GI50 (HL-60) was 0.00292 µM (active), the GI50 (EKVX) was 0.0251 µM (active) and the GI50 (SF-539) was 0.0157 µM (active). For the same compound, the GI50 (OVCAR-3) was 0.143 µM (active), the GI50 (RPMI-8226) was 0.0411 µM (active) and the GI50 (TK-10) was 0.11 µM (active). For the same compound, the GI50 (SNB-75) was 0.0787 µM (active), the GI50 (SF-295) was 0.0121 µM (active) and the GI50 (NCI-H460) was 0.001 µM (active). For the same compound, the GI50 (SK-MEL-5) was 0.0247 µM (active), the GI50 (SNB-19) was 0.0197 µM (active) and the GI50 (U-251) was 0.0175 µM (active). The GI50 (NCI-H23) was 0.0103 µM (active), the GI50 (SK-MEL-28) was 0.2 µM (active) and the GI50 (HOP-92) was 0.0205 µM (active). The GI50 (HOP-62) was 0.0127 µM (active), the GI50 (KM-20L2) was 0.0404 µM (active) and the GI50 (DLD-1) was 0.123 µM (active). The GI50 (MOLT-4) was 0.00194 µM (active), the GI50 (LXFL 529) was 7.23 µM (inactive) and the GI50 (SF-268) was 0.0208 µM (active). The GI50 (SR) was > 10 µM (inactive), the GI50 (786-0) was 3.85 µM (inactive) and the GI50 (HOP-18) was 0.249 µM (active). The GI50 (SN12C) was 0.0256 µM (active), the GI50 (K562) was 0.0469 µM (active) and the GI50 (A549) was 0.0222 µM (active). The GI50 (M19-MEL) was 0.0608 µM (active), the GI50 (CAKI-1) was 13 nM (active) and the GI50 (SK-OV-3) was 0.0144 µM (active). The GI50 (UO-31) was 0.0627 µM (active).
